Where two headings read alike, the source gives them in different places.

Results on seven compounds are retold here after patent US10370372B2, “Fused pyrimidine compound or salt thereof” (TAIHO PHARMACEUTICAL CO., LTD., priority 2015, dated 2019).

What all share (type): cell-based
In experiment [1] the target is T1, human androgen receptor (Homo sapiens, UniProt P10275).
T1 construct: expressed in transfected cells; host or cells: COS-7 cells (ATCC)
T1 sequence (P10275 1-920): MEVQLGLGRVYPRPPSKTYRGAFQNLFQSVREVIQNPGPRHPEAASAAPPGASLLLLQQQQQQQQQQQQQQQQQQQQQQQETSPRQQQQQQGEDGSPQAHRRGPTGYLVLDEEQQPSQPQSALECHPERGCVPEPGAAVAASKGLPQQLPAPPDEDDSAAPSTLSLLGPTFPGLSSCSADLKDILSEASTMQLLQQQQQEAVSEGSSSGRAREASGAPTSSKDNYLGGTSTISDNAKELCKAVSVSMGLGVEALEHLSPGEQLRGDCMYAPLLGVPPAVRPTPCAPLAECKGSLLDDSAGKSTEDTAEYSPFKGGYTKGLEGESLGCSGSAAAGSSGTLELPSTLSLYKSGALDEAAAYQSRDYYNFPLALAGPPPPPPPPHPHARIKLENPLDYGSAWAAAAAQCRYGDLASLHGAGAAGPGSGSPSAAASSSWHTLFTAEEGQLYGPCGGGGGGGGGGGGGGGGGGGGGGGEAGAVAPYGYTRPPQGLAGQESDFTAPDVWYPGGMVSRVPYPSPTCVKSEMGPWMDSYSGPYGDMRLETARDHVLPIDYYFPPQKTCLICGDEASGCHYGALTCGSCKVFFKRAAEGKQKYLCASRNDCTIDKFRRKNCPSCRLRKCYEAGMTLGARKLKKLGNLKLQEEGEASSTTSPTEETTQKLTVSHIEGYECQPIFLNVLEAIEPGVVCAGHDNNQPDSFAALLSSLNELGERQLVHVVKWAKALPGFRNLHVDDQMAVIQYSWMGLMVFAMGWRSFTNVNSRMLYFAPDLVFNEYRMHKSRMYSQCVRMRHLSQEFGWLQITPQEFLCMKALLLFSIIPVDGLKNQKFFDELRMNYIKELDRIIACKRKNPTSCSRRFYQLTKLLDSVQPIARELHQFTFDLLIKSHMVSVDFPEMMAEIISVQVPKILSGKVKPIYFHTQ
Description: Antagonist activity for AR: MMTV-luc reporter transcription in COS-7 cells transfected with human AR, stimulated with DHT. On the procedure:
Antagonist activity for AR was evaluated according to the following method. COS-7 cells (ATCC) were transfected with pMMTV-luc vector (reporter plasmid having, as an androgen response element, […] long terminal repeat) and pEX-hAR vector (human androgen receptor expression vector: which expresses human AR gene under control of CMV promoter) by using Nucleofector (registered trademark) Kit R (Lonza) as a transfection reagent and Amaxa (Lonza). The COS-7 cells obtained after transfection were seeded in a clear bottom 96 well microplate (BD) at 1.5×10^4/well with phenol red free RPMI1640 containing 10% charcoal-treated fetal bovine serum (hereinbelow, DCC-FBS) (hereinbelow, the medium is referred to as an evaluation medium), and then cultured overnight. […] Then, the transcription activity value of the reporter plasmid was measured. The transcription activity was measured by using Bright-Glo™ Luciferase Assay System (Promega).

Experiment [2] deals with Human prostate cancer cells LNCaP. As to the kind of experiment: Inhibitory activity on androgen-dependent proliferation of prostate cancer cells. The following applies: 1 nmol/L DHT, 72 hours, Cell Counting Kit-8, read-out: Proliferation inhibition concentration GI50 value. On the procedure: Human prostate cancer cells LNCaP (Non-Patent Literature 5) having […] androgen receptor gene were seeded in a clear bottom 96 well microplate (BD) at 4.0×10^3/well with phenol red free RPMI1640 containing 5% DCC-FBS (hereinbelow, the medium is referred to as an evaluation medium), and then cultured overnight. […] Then, the number of viable cells was measured. The number of viable cells was measured by using Cell Counting Kit-8 (DOJINDO LABORATORIES).
A general note: Tetrazolium assays rely on reduction of a dye to a coloured formazan, in cell work by metabolically active cells.

In experiment [3] the test system is AR positive human prostate cancer cells VCaP. As to the kind of experiment: Agonist activity for AR: cell proliferation rate of VCaP cells. Conditions: 5-10000 nmol/L, 72 hours, relative to evaluation medium only, more than 10% = agonist activity. Here is the method: Then, the number of viable cells was measured (test group). As a control, the cells were cultured after being added with the evaluation medium only, and the number of viable cells was measured (control group). The number of viable cells was measured by using CellTiter-Glo™ Luminescent Cell Viability Assay (Promega). From the measured number of viable cells, cell proliferation rate with respect to the compound of Examples or the compound of Comparative Examples was calculated based on the number of viable cells measured in the case of using the evaluation medium only. Cell proliferation rate (%)=(Number of viable cells in test group−Number of viable cells in control group)/(Number of viable cells in control group)×100
By considering an error in the number of viable cells measured in the case of using the evaluation medium only, when the cell proliferation rate was more than 10% at any concentration of the 8 concentrations which had been evaluated, it was determined to have an agonist activity for AR.

Experiment [4] concerns AR expression in LNCaP. Description: Activity of reducing expression level of androgen receptor (Western blotting in LNCaP). Conditions: Homo sapiens, read-out: AR expression reducing activity. Here is the method:
AR positive human prostate cancer cells LNCaP were seeded in a 6 well microplate (BD) at 3.5×10^5/well with RPMI1640 containing 5% FBS (hereinbelow, the medium is referred to as an evaluation medium), and then cultured overnight. […] After culture for 48 hours, the medium was removed and the cells were washed with PBS and added with 0.1 mL of Lysis buffer (M-PER added with Protease Inhibitor Cocktail), followed by keeping at 4° C. for 20 minutes. After cell lysis, the cell solution was centrifuged to recover the supernatant as cell lysate. […] The antibody-reacting band (anti AR receptor) was quantified by LAS Imaging System (FUJIFILM) using Super Signal West Dura Substrate (Thermo Scientific) as a detection reagent.
When the AR expression reducing activity is 50% or more, it is described as “reduced”.
For orientation: Immunoblotting shows a protein as a band on a membrane.

Where [5] appears, read: COS-7 cells with pMMTV-luc and pEX-hAR, 1 nmol/L DHT, 24 hours, read-out: AR antagonist IC50.
Setting [6] is: 10000 nmol/L, 48 hours, vs evaluation medium control.

`CC(C)(C)OC(=O)NCCNC(=O)c1ccc(Nc2ncnc3c2CCN(c2ccc(C#N)c(C(F)(F)F)c2)C3)nn1` [Example 8, tert-butyl (2-(6-((7-(4-cyano-3-(trifluoromethyl)phenyl)-5,6,7,8-tetrahydropyrido[3,4-d]pyrimidin-4-yl)amino)pyridazine-3-carboxamido)ethyl)carbamate] showed a half-maximal inhibitory concentration (IC50) in experiment [1] of 59 nM. Besides, the GI50 in experiment [2] came to 1100 nM. For the same compound, in experiment [3], the “Cell proliferation rate (%)” value is 5.3%. For the same compound, the inhibition at 10 µM in experiment [4] (48 h) was above 50%.

Turning to `COc1ccc(Nc2nc(C#N)nc3c2CCN(c2ccc(C#N)c(C(F)(F)F)c2)C3)cc1` [Example 47, 7-(4-Cyano-3-(trifluoromethyl)phenyl)-4-((4-methoxyphenyl)amino)-5,6,7,8-tetrahydropyrido[3,4-d]pyrimidine-2-carbonitrile], the concentration for half-maximal inhibition (IC50) in experiment [1] is 700 nM. Further, in experiment [2], the GI50 stood at 450 nM. The “Cell proliferation rate (%)” value in experiment [3] is reported as −1.7%. Besides, the inhibition at 10 µM in experiment [4] (48 h) is above 50%.

As for `CC(C)(O)c1ccc(Nc2ncnc3c2CCN(c2ccc([N+](=O)[O-])c(Cl)c2)C3)nc1` [Example 13, 2-(6-((7-(3-Chloro-4-nitrophenyl)-5,6,7,8-tetrahydropyrido[3,4-d]pyrimidin-4-yl)amino)pyridin-3-yl)propan-2-ol], the half-maximal inhibitory concentration (IC50) in experiment [1] (setting [5]) amounted to 32 nM. Moreover, in experiment [2], the GI50 is 300 nM. The “Cell proliferation rate (%)” value in experiment [3] is 7.3%. The inhibition at 10 µM in experiment [4] (setting [6]) is above 50%.

In turn, `CC(C)(O)c1ccc(Nc2ncnc3c2CCN(c2ccc([N+](=O)[O-])c(C(F)(F)F)c2)C3)nc1` [Example 14, 2-(6-((7-(4-nitro-3-(trifluoromethyl)phenyl)-5,6,7,8-tetrahydropyrido[3,4-d]pyrimidin-4-yl)amino)pyridin-3-yl)propan-2-ol] had a half-maximal inhibitory concentration (IC50) in experiment [1] of 70 nM. Further, the GI50 in experiment [2] was determined as 1200 nM. Besides, in experiment [3], the “Cell proliferation rate (%)” value is recorded as 1.4%. Besides, the inhibition at 10 µM in experiment [4] (48 h) was above 50%.

For `Cc1cc(N2CCc3c(ncnc3Nc3ccc(C(C)(C)O)cn3)C2)ccc1[N+](=O)[O-]` [Example 16, 2-(6-((7-(3-methyl-4-nitrophenyl)-5,6,7,8-tetrahydropyrido[3,4-d]pyrimidin-4-yl)amino)pyridin-3-yl)propan-2-ol], the IC50 in experiment [1] (setting [5]) came to 70 nM. Also, in experiment [2], the GI50 amounted to 230 nM. Also, the “Cell proliferation rate (%)” value in experiment [3] is recorded as −1.8%. The inhibition at 10 µM in experiment [4] (setting [6]) is above 50%.

Regarding `COc1ccc(Nc2nc(C)nc3c2CCN(c2ccc(C#N)c(C(F)(F)F)c2)C3)cc1` [Example 48, 4-(4-((4-Methoxyphenyl)amino)-2-methyl-5,6-dihydropyrido[3,4-d]pyrimidin-7(8H)-yl)-2-(trifluoromethyl)benzonitrile], the IC50 in experiment [1] (setting [5]) was 1000 nM. The GI50 in experiment [2] turned out to be 610 nM. Further, in experiment [3], the “Cell proliferation rate (%)” value is given as −1.6%. Besides, the inhibition at 10 µM in experiment [4] (48 h) is above 50%.

With `N#Cc1ccc(N2CCc3c(ncnc3Nc3ccc(C(=O)NC4CC4)nn3)C2)cc1C(F)(F)F` [Example 9, 6-((7-(4-cyano-3-(trifluoromethyl)phenyl)-5,6,7,8-tetrahydropyrido[3,4-d]pyrimidin-4-yl)amino)-N-cyclopropylpyridazine-3-carboxamide], the half-inhibitory concentration (IC50) in experiment [1] was 30 nM. Further, the GI50 in experiment [2] came to 510 nM. For the same compound, in experiment [3], the “Cell proliferation rate (%)” value is on record as −3.0%. Further, the inhibition at 10 µM in experiment [4] (48 h) was above 50%.

The term IC50 denotes the point on the concentration scale where inhibition reaches its midpoint.
